# Test results as given in patent publication US20030176651A1, “Multiprotein-complex comprising a nmda receptor and uses thereof” (priority 2000, published 2003).
# “Also recorded” adds a separate entry of the source. Like-named read-outs stand apart in the source and are kept apart here.
# Experiments:
# [1] = system: CaM kinase II; assay: Ex vivo CaM kinase II activity assay after topical application to dorsal spinal cord; format: in vivo, mouse; details: for activation of constitutive CaM kinase II activity, wild type versus PSD-95 mutant: naive mice, topical 15 min, NMDA 500 μM with glycine 100 μM, ionomycin 10 μM
# Description: Following lumbar L3-6 laminectomy under anaesthesia, mice, which in some cases had previously received chronic constriction injury, were treated by topical application of agents to the dorsal surface of the spinal cord. […] Constitutive (autophosphorylated) and Ca^2+/CM-elicited activity of CaM II kinase [P. I. Hanson et al., Neuron 3, 59 (1989); P. M. Jones and S. J. Persaud, Am. J. Physiol. 274, E708 (1998)] were measured by the following procedure. Samples were rapidly homogenised on ice in 20 mM Na HEPES pH 7.5 with 5% glycerol, 1 mM EGTA, 1 mM dithiothreitol, 1 mM AEBSF, 2 μg.ml^−1 aprotinin, 10 μg.ml^−1 leupeptin, 2 μg.ml^−1 pepstatin, 50 μg.ml^−1 soybean trypsin inhibitor, 25 mM Na β-glycerophosphate, 1 mM Na orthovanadate, 1 mM Na F, 1 μM calyculin A, 1 μM cypermethrin. Following a 30 min incubation on ice with 0.25% CHAPS and clarification, samples were incubated at 4° C. for 2 hours with 3 μg.ml^−1 mouse anti-α-CaM kinase II IgG (clone CBα-2; Zymed) and then with excess Protein G-Sepharose for 1 hour. Aliquots of washed immunoprecipitate were incubated for 20 min at 30° C. (linear range of assay) with 50 μM autocamtide-2, 50 μM ATP (with [^33P] γ-ATP to 0.25 μCi/tube), 10 mM MgCl2 and 8 μg.ml^−1 purified bovine calmodulin (Sigma), in the presence of 0.5 μM PKC-α19-31 and 0.5 μM PKI6-22 amide (to suppress any PKC and PKA-mediated activity respectively) before termination with cold TCA (to 10%), centrifugation and spotting of the supernatant onto P81 phospho-cellulose paper.
# Samples were washed extensively in 75 mM H3PO4 and dried before scintillation counting. Constitutive and maximal Ca^2+-evoked activity were measured in the absence and presence of 2 mM CaCl2 respectively. Zero time and substrate-free blanks were less than 2% of maximal activity. Parallel immunoblotting experiments were attempted with phospho-specific antisera for Thr^286-CaM kinase II (the key autophosphorylation site), but gave insufficient signal:noise ratios for further use.
# [2] = system: mice with chronic constriction injury (CCI) to the sciatic nerve / naive mice; assay: Mechanical allodynia (von Frey filaments, paw withdrawal threshold) after intrathecal drug treatment; format: in vivo, mouse; details: for reversal of mechanical allodynia ipsilateral to CCI: wild type mice, intrathecal in 10 μl, (R)-CPP 100 ρmol, peptide 1 n mole, K-93/KN-92 120 pmol
# Description: (§1) Animals were initially anaesthetised with sodium pentobarbital (Sagatal; 0.01 ml/kg (1:4 in saline, i.p.; Rhône Mérieux, UK) and this was then supplemented with halothane O2 (Zeneca, UK). Under aseptic conditions, using a variation of the method of Bennett and Xie for rat [G. J. Bennett and Y. K. Xie, Pain 33, 87 (1988)], the sciatic nerve was exposed at the mid-thigh level proximal to the sciatic trifurcation. Three chromic catgut ligatures (5.0; Ethicon, Edinburgh) separated by 1 mm were tied loosely to constrict the […] as viewed under 40× magnification. Vascular supply was not compromised. The overlying muscle and skin were sutured and the animals were placed in a recovery cage.
# (§2) Animals were tested for 6 days prior to surgery in order to establish stable baseline levels for each test and then every one or two days post-operatively (PO). The responses were compared to the average of the pre-surgery values and the contralateral control. The animals were examined daily to ensure that no autotomy was present.
# Mechanical allodynia was measured as the withdrawal threshold to calibrated Semmes-Weinstein von Frey filaments (Stoelting, Wood Dale, Ill.) with a bending force of 0.22-84.96 g. The mice were placed in a small rectangular cage. The filaments were applied to the mid-plantar surface of the hindpaw from beneath until the filament started to bend. This stimulus was repeated 8-10 times at 1-2 sec intervals for both the injured and uninjured hindpaws. The mean threshold required to elicit a withdrawal response was recorded. The filaments were applied in ascending order, and a response was characterised as a brief paw flick. The withdrawal threshold was defined from the lower of two consecutive von Frey filaments that elicited a response. Data were expressed as the threshold indentation pressure (i.e. the bending force/the cross-sectional area at the tip of the filament). Mean basal values for pre-operative paw withdrawal threshold were typically around 600 mN.mm^−2.
# (§3) Baseline measurements were recorded for thermal hyperalgesia (Hargreaves' test) and mechanical allodynia (von Frey filament test) in mice which had undergone the chronic constriction injury and were at the peak of neuropathy. Mice were anaesthetised with halothane and O2. Drugs were injected intrathecally, in 10 μl saline, at the L4 level of the spinal cord using a 25 μl microsyringe [J. L. Hylden and G. L. Wilcox, Eur. J. Pharmacol., 67, 313 (1980)]. The experimenter was blind to the content of the injections so as to eliminate bias, and dye injections (Pontamine Sky Blue) were performed to determine the site of injection. 15 minutes following injection, mice were re-tested using the same procedures and measurements were taken to determine the effects of drug on hyperalgesia and allodynia. Animals were tested every 5 minutes until readings returned to baseline levels.
# [3] = system: mice with chronic constriction injury (CCI) to the sciatic nerve / naive mice; assay: Thermal hyperalgesia (Hargreaves, paw withdrawal latency) after intrathecal drug treatment; format: in vivo, mouse; details: for reversal of thermal hyperalgesia ipsilateral to CCI: wild type mice, intrathecal in 10 μl, (R)-CPP 100 ρmol, peptide 1 n mole, K-93/KN-92 120 pmol
# Description: as §1, §2
# Thermal hyperalgesia was monitored using Hargreaves' Thermal Stimulator (Linton Instruments, USA). The stimulus was applied to the mid-plantar surface of the hind paw. The withdrawal response was characterised as a brief paw flick. The latency of withdrawal was recorded for the ipsilateral (injured) and the contralateral hindpaws. The means of between 5 and 10 readings were recorded at 3-5 min intervals to ensure no hypersensitivity to the test was established. Mean basal values for pre-operative paw withdrawal latency were typically around 5 sec.
# as §3
# [4] = system: NMDA receptors; details: rats, cited from earlier work
# [5] = molecular target: multi-protein complex comprising NMDA receptor (NR1, NR2B, PSD-95) (Mus musculus, UniProt P35438+Q01097); assay: Ligand affinity chromatography of mouse brain DOC extracts (SDS-PAGE, Western blotting); format: binding
# [6] = system: hippocampal CA1 region slices (MEK inhibitor)
# Description: Low resistance glass microelectrodes filled with ACSF were placed into stratum radiatum of the hippocampal CA1 region to record field excitatory postsynaptic potentials (fEPSPs) evoked by presynaptic stimulation pulses delivered once every 50 seconds to the Schaffer collateral/commissural fibers via a bipolar nichrome wire stimulating electrode. At the beginning of each experiment the intensity of presynaptic fiber stimulation was adjusted to evoke fEPSPs that were approximately half of the maximal fEPSP amplitude that could be evoked by strong intensity stimulation. High-frequency stimulation-induced LTP was elicited using two trains of 100 Hz stimulation (1 sec. in duration) delivered with an inter-train interval of 10 seconds. To elicit saturating levels of LTP we delivered 6, one-second-long trains of 100 Hz stimulation with an inter-train interval of 5 minutes. For statistical comparisons (unpaired t-tests, two-tailed, N=number of animals) we compared the average amount of potentiation present 55 to 60 minutes after the first high-frequency stimulation train or 40 to 45 minutes after low-frequency trains of stimulation. […] Similar results were obtained with both internal solutions and the results were combined. […] All experiments and initial data analysis were performed blind except for experiments done on 3 H-Ras^−/− mutant mice. […] All values are reported as mean±SEM.
# [7] = system: mouse brain proteins / multi-protein complex (PSD-95, NMDA receptor); assay: Peptide affinity chromatography of mouse brain DOC extracts (SDS-PAGE); format: binding; details: 0.5 ml mouse brain DOC extract, Coomassie stained SDS-PAGE
# Description: Peptides were solubilised and coupled to affigel-10 in methanol at 5 mg/ml resin for 3 days at 4° C. with constant agitation and residual active side chains were blocked with 0.5 M Tris pH8.8 for 1 day at 4° C. followed by transfer of the resin to PBS.
# Initial small-scale experiments were done using 0.5 ml brain DOC extract and 25 μl affigel-10 immobilised peptides. The resins were washed four times with 0.5 ml cold DOC buffer after an incubation period of four hours at 4° C. with constant agitation followed by SDS-PAGE analysis. Large scale samples were prepared by adding 0.5 ml NR2B 1477-1482 peptide derivatised affigel-10 with 50 ml DOC extract followed by an incubation overnight at 4° C. with constant agitation. The resin was then transferred into a chromatography column and washed to baseline with approximately 100 ml cold DOC buffer. Bound proteins were released from the resin by boiling for 30 minutes in 4% SDS-containing buffer and 20 μl aliquots were subsequently used for SDS-PAGE analysis and Western blotting (see Example 2).
# [8] = CCI wild type mice, intrathecal
# [9] = ligand coupled to PharmaLink resin
# [10] = naive PSD-95 mutant mice, intrathecal NMDA
# [11] = naive wild type mice, intrathecal NMDA 0.25 nmol in 10μl
compound,measurement,setting,value
O=C(O)[C@H]1CN(CCCP(=O)(O)O)CCN1 [(R)-CPP],effect on elevated proportion of constitutive CaM kinase II activity ipsilateral to CCI,"[1]; wild type mice with CCI, topical application",entirely prevented
same,effect on contralateral responses (mechanical),[2]; [8],In no case was there any significant effect
same,effect on paw withdrawal threshold in PSD-95 mutants,"[2]; PSD-95 mutant mice with CCI, intrathecal",unaffected
same,effect in naive or sham-operated mice,[2]; naive or sham-operated wild type or PSD-95 mutant mice (data not shown),had no effect
same,reversal of mechanical allodynia ipsilateral to CCI,[2],completely reversed
same,effect on contralateral responses (thermal),[3]; [8],no effect
same,effect on paw withdrawal latency in PSD-95 mutants,"[3]; PSD-95 mutant mice with CCI, intrathecal 100 ρmol in 10 μl",had no effect; also recorded: unaffected
same,reversal of thermal hyperalgesia ipsilateral to CCI,[3],completely reversed
NC(CCCP(=O)(O)O)C(=O)O (stereo not drawn) [AP5],effect on new learning,[4]; both types of task,severely impaired
same,effect on retention of a previously learned olfactory discrimination or watermaze task,[4],no effect
NC(N)=NCCCCN=C(N)N [Arcaine],proteins / multi-protein complex retained on immobilised ligand,[5]; ligand coupled to affigel-10,"substantial amount of protein did interact with immobilised Arcaine, including NR1, NR2B and PSD-95"
NC(CCCP(=O)(O)O)C(=O)O [D-AP5],proteins / multi-protein complex retained on immobilised ligand,[5]; [9],bound to an array of protein species
same,proteins / multi-protein complex retained on immobilised ligand,[5]; ligand coupled to affigel-10,ineffective in the isolation of any protein
COc1ccc2c(c1)[C@]13CCCC[C@@H]1[C@H](C2)N(C)CC3 [Dextromethorphan],proteins / multi-protein complex retained on immobilised ligand,[5],"only marginal amounts of both NR1 and NR2B were present, but surprisingly a comparatively large amount of PSD-95"
"NC1CCN(O)C1=O (stereo not drawn) [HA-966, 3-amino-1-hydroxy-2-pyrrolidone]",proteins / multi-protein complex retained on immobilised ligand,[5]; [9],found positive for NMDA receptor channel components and the attached PSD-95
same,proteins / multi-protein complex retained on immobilised ligand,[5]; ligand coupled to affigel-10,found positive for NMDA receptor channel components and the attached PSD-95
CC(C(O)c1ccc(O)cc1)N1CCC(Cc2ccccc2)CC1 (stereo not drawn) [Ifenprodil],proteins / multi-protein complex retained on immobilised ligand,[5],"capable of binding the multi-protein complex and many other molecules, though to a slightly lower degree than the Arcaine resin"
COc1ccc(S(=O)(=O)Nc2ccccc2CN(C)C/C=C/c2ccc(Cl)cc2)cc1 [KN92],reversal of thermal hyperalgesia ipsilateral to CCI,[3],to a smaller extent
COc1ccc(S(=O)(=O)N(CCO)c2ccccc2CN(C)C/C=C/c2ccc(Cl)cc2)cc1 [KN93],reversal of mechanical allodynia ipsilateral to CCI,[2],reversal
same,reversal of thermal hyperalgesia ipsilateral to CCI,[3],reversal
NC(=O)C[C@H](N)C(=O)O [L-Asparagine],proteins / multi-protein complex retained on immobilised ligand,[5]; ligand coupled to affigel-10,bound to an array of protein species
"CN[C@H](CC(=O)O)C(=O)O [NMDA, N-methyl-D-aspartate]","activation of constitutive CaM kinase II activity, wild type versus PSD-95 mutant",[1],equivalent
same,proteins / multi-protein complex retained on immobilised ligand,[5],only marginal quantities of the multi-protein complex were retained
same,effect on mechanical behavioural responses in PSD-95 mutants,[2]; [10],unaffected
same,induction of mechanical allodynia-like behavioural change,[2]; [11],bilaterally mimicked
same,effect on thermal behavioural responses in PSD-95 mutants,[3]; [10],unaffected
same,induction of thermal hyperalgesia-like behavioural change,[3]; [11],bilaterally mimicked
N#CC(=C(/N)Sc1ccccc1N)/C(C#N)=C(\N)Sc1ccccc1N [U0126],fEPSPs after 5 Hz stimulation,"[6]; slices from PSD-95 mutant mice continuously exposed to U0126, N=14 slices",270±12 % of baseline
same,effect on induction of LTP by a brief train of 5 Hz stimulation,"[6]; wild type slices, 20 μM",strongly suppressed the induction of LTP
same,fEPSPs after 5 Hz stimulation,"[6]; wild type slices, continuously bathed in U0126 (20 *M) at least 60 min before 5 Hz stimulation, N=11 slices",137±9 % of baseline
C[C@H](CCC(=O)O)C[C@H](C)C[C@H](C)C(=O)/C=C(\O)[C@H](C)C[C@H](C)C/C=C/[C@@H](C)[C@@H](O)[C@@H](C)[C@@H](O)C[C@@H]1CC[C@@](C)([C@H]2CC[C@@](C)([C@@H](C)O)O2)O1 [ionomycin],"activation of constitutive CaM kinase II activity, wild type versus PSD-95 mutant",[1],equivalent
"KLSSIESDV [NR2B (1474-1482), NR2B C-terminal peptide]",proteins bound by peptide covalently linked to affigel-10,[7],did not show any binding pattern similar to the slightly shorter one
"RRAIEREEGQLQLCSRHRES [NR1 C-terminal peptide, last 20 amino acids of NR1, 919-938]",proteins bound by peptide covalently linked to affigel-10,[7],showed no evident binding pattern
SIESDV [NR2B (1477-1482)],proteins bound by peptide covalently linked to affigel-10,[7],"revealed several bands at 75 and 100 kDa; also recorded: capable of not only purifying PSD-95 and other members of this family, but also the NMDA receptor itself"
myristoyl-autocamtide 2-related inhibitory peptide,reversal of mechanical allodynia ipsilateral to CCI,[2],reversal
same,reversal of thermal hyperalgesia ipsilateral to CCI,[3],reversal
